# Assay results published in US20020026051A1, “Dithiepino [6,5-b]pyridines, and related compositions and methods” (priority 1999, published 2002).
# pIC50: −log10 of the molar value.
# Target: T1, calcium channel (Oryctolagus cuniculus, UniProt P15381)
# T1 construct: from tissue; host or cells: rabbit heart membrane preparation
# Test: Assay for Inhibition of Nitrendipine Binding (3H-nitrendipine, heart membranes)
# Settings: 3H-nitrendipine displacement, rabbit heart membranes; Tables 1-5
# Experimental: Female, New Zealand white rabbits (1-2 kg) are sacrificed by cervical dislocation, and the heart is immediately removed, cleaned and chopped into small pieces. The tissue is homogenized in 5× times volume of 0.05M Hepes buffer, pH 7.4. The homogenate is centrifuged at 4000 g for 10 minutes, and the supernatant is re-centrifuged at 42,000×g for 90 minutes. The resulting membrane pellet is resuspended (0.7 ml/g weight) in 0.05M Hepes, pH 7.4 and stored at […] until used. Each tube of the binding assay contains ^3H-nitrendipine (0.05-0.50 nM), buffer, membranes (0.10 ml), and test compound in a total volume of 1.0 ml. After 90 minutes at 4° C., the bound nitrendipine is separated from the unbound by filtration on Whatman GF/C filters. After rinsing, the filters are dried and counted in a liquid scintillation counter.
# Non-specific binding of ^3H-nitrendipine (that amount bound in the presence of excess unlabelled nitrendipine) is subtracted from the total bound to obtain specifically bound radiolabeled nitrendipine. The amount of specifically bound nitrendipine in the presence of a test compound is compared to that amount bound in the absence of a compound. A percent displacement (or inhibition) can then be calculated.
# T1 sequence (P15381 whole entry, other chains not shown): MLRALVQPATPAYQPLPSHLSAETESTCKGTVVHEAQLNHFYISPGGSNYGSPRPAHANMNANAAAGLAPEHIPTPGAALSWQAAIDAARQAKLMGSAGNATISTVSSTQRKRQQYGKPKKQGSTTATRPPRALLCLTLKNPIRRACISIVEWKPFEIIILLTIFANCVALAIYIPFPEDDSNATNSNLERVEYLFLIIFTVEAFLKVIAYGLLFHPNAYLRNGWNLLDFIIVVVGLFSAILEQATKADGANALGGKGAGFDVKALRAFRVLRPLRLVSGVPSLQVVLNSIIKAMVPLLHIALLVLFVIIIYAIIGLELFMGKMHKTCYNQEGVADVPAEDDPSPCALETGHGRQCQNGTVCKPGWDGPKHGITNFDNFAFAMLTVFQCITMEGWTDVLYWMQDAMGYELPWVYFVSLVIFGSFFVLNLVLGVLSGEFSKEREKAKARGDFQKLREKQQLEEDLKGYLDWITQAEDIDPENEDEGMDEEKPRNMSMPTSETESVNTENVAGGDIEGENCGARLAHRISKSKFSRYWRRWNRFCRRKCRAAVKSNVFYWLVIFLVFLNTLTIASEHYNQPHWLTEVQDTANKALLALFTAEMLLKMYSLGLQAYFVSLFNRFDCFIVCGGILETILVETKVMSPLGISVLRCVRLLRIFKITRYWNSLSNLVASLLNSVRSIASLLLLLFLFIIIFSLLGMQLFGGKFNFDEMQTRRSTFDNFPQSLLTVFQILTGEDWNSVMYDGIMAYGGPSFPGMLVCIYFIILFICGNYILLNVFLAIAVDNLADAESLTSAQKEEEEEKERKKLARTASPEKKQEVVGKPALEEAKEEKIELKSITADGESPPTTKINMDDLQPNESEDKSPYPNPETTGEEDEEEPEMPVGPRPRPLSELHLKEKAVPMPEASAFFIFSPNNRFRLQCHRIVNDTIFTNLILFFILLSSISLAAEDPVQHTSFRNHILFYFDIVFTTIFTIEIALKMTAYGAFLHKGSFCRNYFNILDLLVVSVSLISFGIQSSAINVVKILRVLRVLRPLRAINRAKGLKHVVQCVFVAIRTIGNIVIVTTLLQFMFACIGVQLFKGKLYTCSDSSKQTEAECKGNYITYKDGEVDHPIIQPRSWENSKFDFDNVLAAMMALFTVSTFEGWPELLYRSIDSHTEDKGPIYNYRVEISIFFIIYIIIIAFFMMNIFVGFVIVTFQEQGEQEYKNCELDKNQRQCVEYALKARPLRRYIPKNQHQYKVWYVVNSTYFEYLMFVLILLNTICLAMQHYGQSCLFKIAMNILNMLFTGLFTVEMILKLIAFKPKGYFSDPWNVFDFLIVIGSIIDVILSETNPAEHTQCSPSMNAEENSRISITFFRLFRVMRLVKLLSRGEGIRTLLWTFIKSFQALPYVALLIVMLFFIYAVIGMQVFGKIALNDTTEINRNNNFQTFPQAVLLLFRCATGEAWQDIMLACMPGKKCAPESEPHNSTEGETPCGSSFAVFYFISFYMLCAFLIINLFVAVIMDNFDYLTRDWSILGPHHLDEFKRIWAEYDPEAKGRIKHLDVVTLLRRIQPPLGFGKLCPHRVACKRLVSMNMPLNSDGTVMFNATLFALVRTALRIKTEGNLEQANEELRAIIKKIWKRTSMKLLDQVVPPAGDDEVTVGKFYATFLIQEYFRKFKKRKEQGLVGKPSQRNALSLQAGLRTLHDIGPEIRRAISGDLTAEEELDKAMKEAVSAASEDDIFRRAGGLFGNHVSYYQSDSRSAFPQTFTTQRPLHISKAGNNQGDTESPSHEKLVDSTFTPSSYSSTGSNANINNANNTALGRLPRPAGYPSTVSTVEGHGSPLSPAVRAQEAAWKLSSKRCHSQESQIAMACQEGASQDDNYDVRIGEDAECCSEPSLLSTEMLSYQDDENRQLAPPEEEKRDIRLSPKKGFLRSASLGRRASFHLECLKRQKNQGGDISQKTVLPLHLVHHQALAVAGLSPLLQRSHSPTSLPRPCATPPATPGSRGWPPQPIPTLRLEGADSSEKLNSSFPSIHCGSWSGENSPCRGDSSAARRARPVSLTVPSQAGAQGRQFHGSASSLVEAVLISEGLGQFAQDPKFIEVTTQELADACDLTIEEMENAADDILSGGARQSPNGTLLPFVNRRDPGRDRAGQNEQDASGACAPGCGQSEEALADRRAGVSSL
# T1 sequence (P13806 27-960 partner limits assumed, other chains not shown): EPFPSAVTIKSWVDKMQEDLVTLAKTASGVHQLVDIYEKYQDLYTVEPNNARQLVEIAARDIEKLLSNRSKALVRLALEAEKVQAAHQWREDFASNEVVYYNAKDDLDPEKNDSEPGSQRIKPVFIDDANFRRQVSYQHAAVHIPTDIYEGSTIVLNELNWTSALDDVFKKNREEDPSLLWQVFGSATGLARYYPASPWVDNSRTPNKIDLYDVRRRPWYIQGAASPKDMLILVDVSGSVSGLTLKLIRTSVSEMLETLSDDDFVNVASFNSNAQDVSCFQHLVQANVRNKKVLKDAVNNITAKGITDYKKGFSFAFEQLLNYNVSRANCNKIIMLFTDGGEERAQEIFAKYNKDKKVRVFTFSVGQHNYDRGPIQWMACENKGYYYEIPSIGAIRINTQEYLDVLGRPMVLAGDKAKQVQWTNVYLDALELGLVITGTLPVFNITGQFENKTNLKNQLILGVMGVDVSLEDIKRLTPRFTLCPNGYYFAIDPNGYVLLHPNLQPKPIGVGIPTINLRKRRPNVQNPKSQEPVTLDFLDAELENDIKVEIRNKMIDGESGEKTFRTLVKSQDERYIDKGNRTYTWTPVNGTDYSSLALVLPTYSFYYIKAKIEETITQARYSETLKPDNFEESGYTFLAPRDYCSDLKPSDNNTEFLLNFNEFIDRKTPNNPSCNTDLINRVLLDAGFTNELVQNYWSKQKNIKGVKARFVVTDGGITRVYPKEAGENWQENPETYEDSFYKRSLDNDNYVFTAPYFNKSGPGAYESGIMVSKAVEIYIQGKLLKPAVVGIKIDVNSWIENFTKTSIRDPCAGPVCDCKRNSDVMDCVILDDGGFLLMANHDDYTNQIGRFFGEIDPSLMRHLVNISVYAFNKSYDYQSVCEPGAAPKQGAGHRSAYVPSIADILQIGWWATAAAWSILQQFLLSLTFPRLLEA
# T1 sequence (P13806 961-1106 partner limits assumed, other chains not shown): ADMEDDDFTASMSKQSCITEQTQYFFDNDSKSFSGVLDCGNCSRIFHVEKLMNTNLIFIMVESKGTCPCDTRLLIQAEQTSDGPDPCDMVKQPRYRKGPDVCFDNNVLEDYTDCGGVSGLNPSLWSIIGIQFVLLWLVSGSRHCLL
row,pIC50,Compound
1,7.28,"CC1=C(C(=O)OCCN(C)Cc2ccccc2)C(c2cccc(C(F)(F)F)c2F)C2=C(CS(=O)(=O)CCCS2(=O)=O)N1 (stereo not shown) [Compound 28, 2H,6H-1,5-Dithiocino[3,2-b]pyridine-9-carboxylic acid, 10-[2-fluoro-3-(trifluoromethyl)phenyl]-3,4,7,10-tetrahydro-8-methyl-2-[methyl(phenylmethyl)amino]ethyl ester 1,1,5,5-tetraoxide]"
2,7.24,"CC1=C(C(=O)OCCN(C)Cc2ccccc2)C(c2ccccc2Cl)C2=C(CS(=O)(=O)CCCS2(=O)=O)N1 (stereo not shown) [Compound 29, 2H,6H-1,5-Dithiocino[3,2-b]pyridine-9-carboxylic acid, 10-(2-chlorophenyl)-3,4,7,10-tetrahydro-8-methyl-2-[methyl(phenylmethyl)amino]ethyl ester 1,1,5,5-tetraoxide]"
3,7.55,"CC1=C(C(=O)OCCN(C)Cc2ccccc2)C(c2cccc(C(F)(F)F)c2F)C2=C(CS(=O)(=O)CS2(=O)=O)N1 (stereo not shown) [Compound 31, 4H-1,3-Dithiino[5,4-b]pyridine-7-carboxylic acid, 8-[2-fluoro-3-(trifluoromethyl)phenyl]-5,8-dihydro-6-methyl-2-[methyl(phenylmethyl)amino]ethyl ester 1,1,3,3-tetraoxide]"
4,7.41,"CC1=C(C(=O)OCCN(C)Cc2ccccc2)C(c2ccccc2Cl)C2=C(CS(=O)(=O)CS2(=O)=O)N1 (stereo not shown) [Compound 32, 4H-1,3-Dithiino[5,4-b]pyridine-7-carboxylic acid, 8-(2-chlorophenyl)-5,8-dihydro-6-methyl-2-[methyl(phenylmethyl)amino]ethyl ester 1,1,3,3-tetraoxide]"

# Same assay, conditions: 3H-nitrendipine displacement, rabbit heart membranes; Tables 6-7
row,Compound,pIC50
1,CCC(CC)C(=O)OCCOC(=O)C1=C(C)NC2=C(C1c1c(F)cccc1Cl)S(=O)(=O)CCS(=O)(=O)C2 (stereo not shown) [Compound 33],7.89
2,"CC1=C(C(=O)OCCOC(=O)C(C)C)C(c2cccc(Cl)c2Cl)C2=C(CS(=O)(=O)CCS2(=O)=O)N1 (stereo not shown) [Compound 34, 5H-[1,4]dithiepino[6,5-b]pyridine-8-carboxylic acid, 9-(2,3-dichlorophenyl)-2,3,6,9-tetrahydro-7-methyl-, 2-(2-methyl-1-oxopropoxy)ethyl ester, 1,1,4,4-tetraoxide]",7.82
3,"CC1=C(C(=O)OCCOC(=O)c2ccc(OC(C)C)cc2)C(c2c(F)cccc2Cl)C2=C(CS(=O)(=O)CCS2(=O)=O)N1 (stereo not shown) [Compound 35, 5H-[1,4]dithiepino[6,5-b]pyridine-8-carboxylic acid, 9-(2-chloro-6-fluorophenyl)-2,3,6,9-tetrahydro-7-methyl-, 2-[[4-(1-methylethoxy)benzoyl]oxy]ethyl ester, 1,1,4,4-tetraoxide]",7.70
4,CC1=C(C(=O)OCCOC(=O)CCC(C)C)C(c2c(F)cccc2Cl)C2=C(CS(=O)(=O)CCS2(=O)=O)N1 (stereo not shown) [Compound 36],7.70
5,CC1=C(C(=O)OCCOC(=O)C(C)Cc2ccccc2)C(c2c(F)cccc2Cl)C2=C(CS(=O)(=O)CCS2(=O)=O)N1 (stereo not shown) [Compound 37],7.48
6,CC1=C(C(=O)OCCOC(=O)CC(C)C)C(c2c(F)cccc2Cl)C2=C(CS(=O)(=O)CCS2(=O)=O)N1 (stereo not shown) [Compound 38],7.46
7,"CC1=C(C(=O)OCCOC(=O)C2CCCCCC2)C(c2c(F)cccc2Cl)C2=C(CS(=O)(=O)CCS2(=O)=O)N1 (stereo not shown) [Compound 39, 5H-[1,4]dithiepino[6,5-b]pyridine-8-carboxylic acid, 9-(2-chloro-6-fluorophenyl)-2,3,6,9-tetrahydro-7-methyl-, 2-[(cycloheptylcarbonyl)oxy]ethyl ester, 1,1,4,4-tetraoxide]",7.42
8,COc1cccc(C(=O)OCCOC(=O)C2=C(C)NC3=C(C2c2c(F)cccc2Cl)S(=O)(=O)CCS(=O)(=O)C3)c1 (stereo not shown) [Compound 40],7.39
9,"CC1=C(C(=O)OCCCOC(=O)c2ccccc2)C(c2c(F)cccc2Cl)C2=C(CS(=O)(=O)CCS2(=O)=O)N1 (stereo not shown) [Compound 41, 7-methyl-9-[2-fluoro-6-chlorophenyl]-2,3,6,9-tetrahydro-1,1,4,4-tetraoxide 5H-1,4-Dithiepino[6,5-b]pyridine-8-carboxylic acid 3-benzoyloxypropyl ester]",7.37
10,"CC1=C(C(=O)OCCOC(=O)C2CCc3ccccc3C2)C(c2c(F)cccc2Cl)C2=C(CS(=O)(=O)CCS2(=O)=O)N1 (stereo not shown) [Compound 42, 7-methyl-9-[2-fluoro-6-chlorophenyl]-2,3,6 9-tetrahydo-1,1,4,4-tetraoxide 5H-1,4-Dithiepino[6,5-b]pyridine-8-carboxlic acid 2-[1,2,3,4-tetrahydo-2-napthoyl]oxyethyl ester]",7.36
11,CC1=C(C(=O)OCCOC(=O)c2ccc3ccccc3c2)C(c2c(F)cccc2Cl)C2=C(CS(=O)(=O)CCS2(=O)=O)N1 (stereo not shown) [Compound 46],7.30
12,CC1=C(C(=O)OCCOC(=O)CN(C)Cc2ccccc2)C(c2c(F)cccc2Cl)C2=C(CS(=O)(=O)CCS2(=O)=O)N1 (stereo not shown) [Compound 47],7.30
13,CC1=C(C(=O)OCCOC(=O)c2ccc(C#N)cc2)C(c2c(F)cccc2Cl)C2=C(CS(=O)(=O)CCS2(=O)=O)N1 (stereo not shown) [Compound 48],7.26
14,CC1=C(C(=O)OCCCCOC(=O)c2ccccc2)C(c2c(F)cccc2Cl)C2=C(CS(=O)(=O)CCS2(=O)=O)N1 (stereo not shown) [Compound 49],7.24
15,CC1=C(C(=O)OCCOC(=O)c2ccccc2)C(c2c(F)cccc2Cl)C2=C(CS(=O)(=O)CCS2(=O)=O)N1 (stereo not shown) [Compound 51],7.21

# The remaining lines, values ahead:
row,pIC50,Compound
1,7.00,CC1=C(C(=O)OCCOC(=O)C2CCCCC2)C(c2c(F)cccc2Cl)C2=C(CS(=O)(=O)CCS2(=O)=O)N1 (stereo not shown) [Compound 55]
2,6.84,CC1=C(C(=O)OCCOC(=O)C(C)C)C(c2c(F)cccc2Cl)C2=C(CS(=O)(=O)CCS2(=O)=O)N1 (stereo not shown) [Compound 57]
3,6.82,CC1=C(C(=O)OCCOC(=O)CN(C)C(=O)c2ccccc2)C(c2c(F)cccc2Cl)C2=C(CS(=O)(=O)CCS2(=O)=O)N1 (stereo not shown) [Compound 58]
4,6.81,CC1=C(C(=O)OCC(=O)OCCc2ccccc2)C(c2c(F)cccc2Cl)C2=C(CS(=O)(=O)CCS2(=O)=O)N1 (stereo not shown) [Compound 59]
5,6.76,CC1=C(C(=O)OC2CCOC2=O)C(c2c(F)cccc2Cl)C2=C(CS(=O)(=O)CCS2(=O)=O)N1 (stereo not shown) [Compound 60]
6,6.75,CC1=C(C(=O)OCCCOC(=O)C(C)C)C(c2c(F)cccc2Cl)C2=C(CS(=O)(=O)CCS2(=O)=O)N1 (stereo not shown) [Compound 62]
7,6.71,CC1=C(C(=O)OCCC2CCOC2=O)C(c2cccc(Cl)c2Cl)C2=C(CS(=O)(=O)CCS2(=O)=O)N1 (stereo not shown) [Compound 63]
8,6.66,CC1=C(C(=O)OCCOC(=O)C(C)C)C(c2c(F)cccc2Cl)C2=C(CS(=O)(=O)CCS2(=O)=O)N1 (stereo not shown) [Compound 64]
9,6.55,CC1=C(C(=O)OCC(=O)OCc2ccccc2)C(c2c(F)cccc2Cl)C2=C(CS(=O)(=O)CCS2(=O)=O)N1 (stereo not shown) [Compound 66]
10,6.47,CC1=C(C(=O)OCC(=O)Oc2ccccc2)C(c2c(F)cccc2Cl)C2=C(CS(=O)(=O)CCS2(=O)=O)N1 (stereo not shown) [Compound 67]
11,6.47,CC(=O)OCCCOC(=O)C1=C(C)NC2=C(C1c1c(F)cccc1Cl)S(=O)(=O)CCS(=O)(=O)C2 (stereo not shown) [Compound 68]
12,6.45,"CC1=C(C(=O)OCC(=O)OC(C)(C)C)C(c2c(F)cccc2Cl)C2=C(CS(=O)(=O)CCS2(=O)=O)N1 (stereo not shown) [Compound 69, 7-methyl-9-[2-fluoro-6-chlorophenyl]-2,3,6,9-tetrahydro-1,1,4,4-tetraoxide 5H-1,4-Dithiepino[6,5-b]pyridine-8-carboxylic acid 2-(1,1-dimethylethyloxy)-2-oxoethyl ester]"
